# Assay results reported in US11384071B2, “Inhibitors of mechanotransduction to treat pain and modulate touch perception” (Max-Delbrück-Centrum für Molekulare Medizin in der …, priority 2016, dated 2022).
# Test system: cutaneous sensory afferents of the saphenous nerve
# Experiment: Ex vivo skin-nerve preparation after local injection into the paw
# Assay type: in vivo, mouse
# Method: Mice were killed by CO2 inhalation for 2-4 min followed by cervical dislocation. The saphenous nerve and the shaved skin of the hind limb were dissected free and placed in an organ bath. The chamber was perfused with a synthetic interstitial fluid (SIF buffer) the composition of which was (in mM): NaCl, 123; KCl, 3.5; MgSO4, 0.7; NaH2PO4, 1.7; CaCl2), 2.0; sodium gluconate, 9.5; glucose, 5.5; sucrose, 7.5; and HEPES, 10 at a pH of 7.4. The skin was placed with the corium side up in the organ bath. The nerve was placed in an adjacent chamber on a mirror to aid fiber teasing under a stereomicroscope. Fine filaments were teased from the saphenous nerve and placed on the recording electrode.
# For the electrical search protocol a micro electrode (1 MΩ) was gently maneuvered to contact the epineurium of the nerve trunk and an electrical stimulation was delivered at a one second interval with square wave pulses of […] duration. […] The electrical nerve stimulation was done at 2 distant sites of the saphenous nerve to trace electrically identified units to their receptive fields. Mechanical sensitivity of single units was tested by mechanical stimulation with a glass rod. For the mechanical search protocol, single units were identified by gentle mechanical stimulation of their receptive field with a glass rod. Mechanically-evoked spikes were visualized and the template saved in an oscilloscope. Then, a sharp tungsten metal electrode was placed in the receptive field and an electrically evoked spike was elicited with suprathreshold current pulses and the electrical latency, the time from the stimulation artifact to spike, was recorded. The distance between the stimulating and recording electrode was designated as the conduction distance. For each isolated fiber the conduction velocity was calculated by dividing conduction distance over electrical latency for the spike.
# A computer-controlled nanomotor (Kleindiek, Reutlingen, Germany) was used to apply controlled displacement stimuli of known amplitude and velocity. The probe was a stainless steel metal rod and the diameter of the flat circular contact area was 0.8 mm containing a force transducer (Kleindiek, Reutlingen, Germany). The signal driving the movement of the linear motor and raw electrophysiological data were collected with a Powerlab 4.0 system (ADInstruments) and spikes were discriminated off-line with the spike histogram extension of the software.
# We made subcutaneous injections of the OB-1 compound (250-500 pmol per paw) into the hairy skin of the mouse lateral foot innervated by the saphenous nerve and recorded from sensory afferents 3 h later using an ex vivo skin—nerve preparation^5,25.
compound,measurement,setting,value
"CCOC(=O)c1c(-c2ccccc2)oc2ccc(Oc3c([N+](=O)[O-])ncn3C)cc12 [OB-1, Ethyl 5-((1-methyl-4-nitro-1H-imidazol-5-yl)oxy)-2-phenylbenzofuran-3-carboxylate]",fibers for which no mechanosensitive receptive field could be found (printed Aβ-fibers),"8/38 fibers vs 5% in controls, not significantly different",21%
same,Aβ-fibers lacking a mechanosensitive receptive field,"3 h after 250-500 pmol per paw s.c., 19/44 fibers, vehicle less than 7%",over 40%
same,proportion of C-fibers that lack a mechanosensitive receptive field,3 h after local treatment,no change
same,firing rates of C-mechanonociceptors (C-Ms) to suprathreshold mechanical stimuli,OB-1 treated skin,not significantly attenuated
same,"proportion of mechanoreceptor types and mechanosensitivity of remaining Aβ-fiber mechanoreceptors (RAMs, SAMs)",OB-1 treated skin vs controls,unchanged
same,mechanical threshold for activation of C-mechanoheat fibers,"OB-1 treated skin, vehicle 106.9±17.4 mN",196.5±35.6 mN
same,stimulus response function of C-MH fibers,"ascending displacements 32-1024 μm, vs vehicle",significantly less responsive
same,mechanosensitivity of A-mechanonociceptors (AM),displacements 32-1024 μm,no changes
same,proportion of Aβ-fibers insensitive to mechanical stimuli,female mice as in male mice,almost identical proportion
same,mean force thresholds for C-M fiber,vehicle vs OB-1,not different
